# Measurements as given in ChEMBL document CHEMBL5390218, “Benzimidazole derivatives as tubulin polymerization inhibitors: Design, synthesis and in vitro cytotoxicity studies” (Bioorg Med Chem Lett, 2023).
# Active and inactive are the calls of the source. The rule behind the calls is not given here.
# Legend:
# [1] = system: B16-F10; assay: Anticancer activity against mouse B16-F10 cells assessed as inhibition in cell growth measured after 72 hrs by MTT assay; assay type: functional, cell-based; conditions: B16-F10, 72 h
# [2] = system: HCT-116; assay: Anticancer activity against human HCT-116 cells assessed as inhibition in cell growth measured after 72 hrs by MTT assay; assay type: functional, cell-based; conditions: HCT-116, 72 h
# [3] = Cytotoxicity against NRK-52E cells assessed as inhibition in cell growth measured after 72 hrs by MTT assay; assay type: toxicity, cell-based; conditions: rat
# [4] = system: SK-MEL-28; assay: Anticancer activity against human SK-MEL-28 cells assessed as inhibition in cell growth measured after 72 hrs by MTT assay; assay type: functional, cell-based; conditions: SK-MEL-28, 72 h
# [5] = system: A549; assay: Anticancer activity against human A549 cells assessed as inhibition in cell growth measured after 72 hrs by MTT assay; assay type: functional, cell-based; conditions: A549, 72 h
# [6] = system: MCF7; assay: Anticancer activity against human MCF7 cells assessed as inhibition in cell growth measured after 72 hrs by MTT assay; assay type: functional, cell-based; conditions: MCF7, 72 h
# [7] = system: SK-MEL-28; assay: Inhibition of colony formation in human SK-MEL-28 cells incubated for 48 hrs by crystal violet staining based colony formation assay; assay type: functional, cell-based; conditions: dose 1-5 µM
# [8] = Selectivity index, ratio of IC50 for NRK-52E cells to ratio of IC50 for human SK-MEL-28 cells
# [9] = system: SK-MEL-28; assay: Induction of morphological changes in human SK-MEL-28 cells assessed as cell shrinkage by ethidium bromide/acridine orange staining based analysis; assay type: functional; conditions: dose 1-5 µM
# [10] = Selectivity index, ratio of IC50 for NRK-52E cells to ratio of IC50 for mouse B16-F10 cells; assay type: toxicity; conditions: NRK-52E cells versus B16-F10 cells, read-out: Selectivity Index
# [11] = system: SK-MEL-28; assay: Induction of morphological changes in human SK-MEL-28 cells assessed as nuclear shrinkage at 1 to 5 uM measured after 48 hrs DAPI staining based analysis; assay type: functional, cell-based; conditions: dose 1-5 µM
# [12] = system: SK-MEL-28; assay: Induction of morphological changes in human SK-MEL-28 cells assessed as bright pyknotic nuclei at 1 to 5 uM measured after 48 hrs DAPI staining based analysis; assay type: functional, cell-based; conditions: dose 1-5 µM
# [13] = system: SK-MEL-28; assay: Inhibition of cell migration in human SK-MEL-28 cells at 1 to 5 uM incubated for 0 to 48 hrs by wound healing assay; assay type: functional, cell-based; conditions: dose 1-5 µM, time 0-48 hrs
# [14] = system: SK-MEL-28; assay: Induction of morphological changes in human SK-MEL-28 cells assessed as bright fragmented nuclei at 1 to 5 uM measured after 48 hrs DAPI staining based analysis; assay type: functional, cell-based; conditions: dose 1-5 µM
# [15] = Selectivity index, ratio of IC50 for NRK-52E cells to ratio of IC50 for human HCT-116 cells; assay type: toxicity; conditions: rat (NRK-52E), NRK-52E cells versus HCT-116 cells, read-out: Selectivity Index
# [16] = system: SK-MEL-28; assay: Induction of morphological changes in human SK-MEL-28 cells assessed as appearance of nuclei at 1 to 5 uM measured after 48 hrs DAPI staining based analysis; assay type: functional, cell-based; conditions: dose 1-5 µM
# [17] = system: SK-MEL-28; assay: Induction of morphological changes in human SK-MEL-28 cells assessed as chromatin condensation at 1 to 5 uM measured after 48 hrs DAPI staining based analysis; assay type: functional, cell-based; conditions: dose 1-5 µM
# [18] = system: SK-MEL-28; assay: Induction of ROS generation in human SK-MEL-28 cells by DCFDA staining based analysis; assay type: functional, cell-based; conditions: dose 1-5 µM
# [19] = Selectivity index, ratio of IC50 for NRK-52E cells to ratio of IC50 for human MCF7 cells; assay type: toxicity; conditions: rat (NRK-52E), NRK-52E cells versus MCF7 cells, read-out: Selectivity Index
# [20] = system: SK-MEL-28; assay: Inhibition of cell migration in human SK-MEL-28 cells at 1 to 5 uM incubated for 0 to 48 hrs by phase-contrast microscopy; assay type: functional, cell-based; conditions: dose 1-5 µM, time 0-48 hrs
# [21] = system: SK-MEL-28; assay: Induction of morphological changes in human SK-MEL-28 cells assessed as production of apoptotic bodies by ethidium bromide/acridine orange staining based analysis; assay type: functional, cell-based; conditions: dose 1-5 µM
# [22] = system: SK-MEL-28; assay: Induction of morphological changes in human SK-MEL-28 cells assessed as chromatin condensation by ethidium bromide/acridine orange staining based analysis; assay type: functional, cell-based; conditions: dose 1-5 µM
# [23] = Selectivity index, ratio of IC50 for NRK-52E cells to ratio of IC50 for human A549 cells; assay type: toxicity; conditions: rat (NRK-52E), NRK-52E cells versus A549 cells, read-out: Selectivity Index
# [24] = system: SK-MEL-28; assay: Induction of morphological changes in human SK-MEL-28 cells assessed as membrane blebbing by ethidium bromide/acridine orange staining based analysis; assay type: functional, cell-based; conditions: dose 1-5 µM
SMILES,IC50 [1] [µM],IC50 [2] [µM],IC50 [4] [µM],IC50 [5] [µM],IC50 [6] [µM],IC50 at 72 h [3] [µM],other results
COc1cc(-c2nc3ccccc3[nH]2)ccc1OCC(=O)N1CCc2ccccc21,> 20,> 20,3.82,> 20,7.68,> 100,
COc1ccc2[nH]c(-c3ccc(OCC(=O)N4CCc5ccccc54)c(OC)c3)nc2c1,12.6,8.39,3.32,8.05,7.78,> 100,
COc1cc(-c2nc3ccccc3[nH]2)ccc1OCC(=O)N1CCCC1,> 20,> 20,> 20,> 20,> 20,> 100,
COc1cc(-c2nc3cc(F)ccc3[nH]2)ccc1OCC(=O)N1CCOCC1,> 20,> 20,> 20,> 20,> 20,> 100,
COc1cc(-c2nc3cc(C)ccc3[nH]2)ccc1OCC(=O)N1CCc2ccccc2C1,4.76,6.04,2.55,5.5,5.9,51.9,inhibition [7]: Dose-Dependent Effect; Selectivity Index [8]: 20.3; Activity [9]: Dose-Dependent Effect; selectivity ratio [10]: 10.9; Activity [11]: Active; Activity [12]: Active; inhibition [13]: Active; Activity [14]: Active; selectivity ratio [15]: 8.6; Activity [16]: Active; Activity [17]: Active; Activity [18]: Dose-Dependent Effect; selectivity ratio [19]: 8.8; inhibition [20]: Active; Activity [21]: Dose-Dependent Effect; Activity [22]: Dose-Dependent Effect; selectivity ratio [23]: 9.4; Activity [24]: Dose-Dependent Effect
COc1cc(-c2nc3ccccc3[nH]2)ccc1OCC(=O)N1CCOCC1,> 20,> 20,> 20,> 20,> 20,> 100,
COc1cc(-c2nc3ccccc3[nH]2)ccc1OCC(=O)N1CCN(c2ncccn2)CC1,> 20,> 20,12.2,> 20,> 20,> 100,
COc1cc(-c2nc3ccccc3[nH]2)ccc1OCC(=O)N1CCCCC1,> 20,> 20,> 20,> 20,> 20,> 100,
COc1cc(-c2nc3cc(C)ccc3[nH]2)ccc1OCC(=O)N1CCc2ccccc21,15.6,> 20,> 20,6.89,> 20,> 100,
COc1cc(-c2nc3cc(F)ccc3[nH]2)ccc1OCC(=O)N1CCc2ccccc2C1,> 20,10.1,8.59,> 20,14.7,> 100,
COc1cc(-c2nc3cc(F)ccc3[nH]2)ccc1OCC(=O)N1CCN(c2ncccn2)CC1,16.1,> 20,7.71,14,> 20,> 100,
COC(=O)Nc1nc2cc(C(=O)c3cccs3)ccc2[nH]1 [NOCODAZOLE],8.58,3.5,8.59,5.93,4.13,,
COc1cc(-c2nc3ccccc3[nH]2)ccc1OCC(=O)N1CCc2ccccc2C1,> 20,> 20,> 20,> 20,> 20,> 100,
COc1cc(-c2nc3cc(C)ccc3[nH]2)ccc1OCC(=O)N1CCN(c2ncccn2)CC1,8.53,4.7,5.42,7.93,11.8,> 100,

# Further lines, with some results ahead:
IC50 [1] [µM],IC50 [2] [µM],IC50 [4] [µM],IC50 [5] [µM],IC50 [6] [µM],SMILES,IC50 at 72 h [3] [µM],other results
> 20,> 20,> 20,> 20,> 20,COc1ccc2[nH]c(-c3ccc(OCC(=O)N4CCCCC4)c(OC)c3)nc2c1,> 100,
12.5,> 20,6.13,8.35,> 20,COc1ccc2[nH]c(-c3ccc(OCC(=O)N4CCN(c5ncccn5)CC4)c(OC)c3)nc2c1,> 100,
4.96,7.9,2.95,8.12,11,COc1ccc2[nH]c(-c3ccc(OCC(=O)N4CCc5ccccc5C4)c(OC)c3)nc2c1,20.5,
> 20,> 20,> 20,> 20,> 20,COc1ccc2[nH]c(-c3ccc(OCC(=O)N4CCN(C(=O)OC(C)(C)C)CC4)c(OC)c3)nc2c1,> 100,
> 20,> 20,> 20,> 20,> 20,COc1ccc2[nH]c(-c3ccc(OCC(=O)N4CCCC4)c(OC)c3)nc2c1,> 100,
> 20,> 20,> 20,> 20,> 20,COc1cc(-c2nc3ccccc3[nH]2)ccc1OCC(=O)N1CCN(C(=O)OC(C)(C)C)CC1,> 100,
> 20,> 20,> 20,> 20,> 20,COc1ccc2[nH]c(-c3ccc(OCC(=O)N4CCOCC4)c(OC)c3)nc2c1,> 100,
> 20,> 20,> 20,> 20,> 20,COc1cc(-c2nc3cc(F)ccc3[nH]2)ccc1OCC(=O)N1CCCCC1,> 100,
> 20,> 20,> 20,> 20,> 20,COc1cc(-c2nc3cc(C)ccc3[nH]2)ccc1OCC(=O)N1CCOCC1,> 100,
> 20,> 20,> 20,> 20,> 20,COc1cc(-c2nc3cc(C)ccc3[nH]2)ccc1OCC(=O)N1CCCC1,> 100,
> 20,> 20,> 20,> 20,> 20,COc1cc(-c2nc3cc(C)ccc3[nH]2)ccc1OCC(=O)N1CCCCC1,> 100,
> 20,> 20,> 20,> 20,> 20,COc1cc(-c2nc3cc(F)ccc3[nH]2)ccc1OCC(=O)N1CCN(C(=O)OC(C)(C)C)CC1,> 100,
> 20,> 20,> 20,> 20,> 20,COc1cc(-c2nc3cc(F)ccc3[nH]2)ccc1OCC(=O)N1CCCC1,> 100,
